In US20090312238A1, “Protection Against Oxidative Damage in Cells” (Florida Atlantic University, priority 2006, published 2009):

What was measured:
[1] = target: T1, hMsrB3 (Homo sapiens, UniProt Q8IXL7); test: Colorimetric assay for Msr activity based on the reduction of DABS-met(o); format: biochemical; conditions: for activity of chelating agent in place of EDTA with Zn-MT: EGTA 5 or 20 mM, deferoxamine 5 mM, zincon 500 μM
T1 construct: made in house; host or cells: BL21 E. coli
T1 sequence (Q8IXL7 33-192): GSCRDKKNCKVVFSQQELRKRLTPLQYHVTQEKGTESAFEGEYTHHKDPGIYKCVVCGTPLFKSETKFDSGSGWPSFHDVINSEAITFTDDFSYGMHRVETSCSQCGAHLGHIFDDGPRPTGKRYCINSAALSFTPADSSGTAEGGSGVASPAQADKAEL
Method: (§1) The reaction mixture (200 μl) to measure Msr activity contained 100 mM Tris-Cl pH 7.4, 100 nmoles of the indicated DABS-met(o) epimer (see Materials), either 15 mM DTT or the Trx regenerating system (Trx, 10 μg, Trx reductase, 2.4 μg, NADPH, 500 μM) and Msr enzyme as indicated. When the liver fractions (Zn-MT, T or T(o)) were tested, DTT was omitted and the Trx reducing system and 5 mM EDTA were added as indicated. Incubations were for 60 minutes at 37° C. unless noted otherwise. […] The quantitation of DABS-met formed employed a slight modification of an extraction procedure previously described by Etienne et al (Etienne, F., Resnick, L., Sagher, D., Brot, N. & Weissbach, H. (2003) Biochem Biophys Res Commun 312, 1005-1010) for the reduction of sulindac to sulindac sulfide by MsrA. The reactions were stopped by the addition of 200 μl of 1 M sodium acetate pH 6.0, followed by the addition of 100 μL of acetonitrile and 1 ml of benzene. After thorough shaking and centrifugation, the optical density of the benzene layer was read at 436 nm. […] Unless indicated otherwise, the results are presented as nmoles DABS-met formed in 60 minutes.

[2] = target: T2, eMsrA (Escherichia coli, UniProt P0A744); test: as above; format: biochemical, E. coli; conditions: for nmoles DABS-met: eMsrA 1.6 μg
T2 construct: made in house; host or cells: E. coli
T2 sequence (P0A744 whole entry): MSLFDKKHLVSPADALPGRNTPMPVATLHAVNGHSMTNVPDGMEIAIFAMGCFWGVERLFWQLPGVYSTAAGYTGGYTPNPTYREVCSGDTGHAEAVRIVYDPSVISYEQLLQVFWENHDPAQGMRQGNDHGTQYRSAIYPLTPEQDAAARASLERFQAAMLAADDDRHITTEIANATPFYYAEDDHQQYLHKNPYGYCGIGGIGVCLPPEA
Method: as §1

[3] = target: T3, eMsrB (Escherichia coli, UniProt P0A746); test: as above; format: biochemical, E. coli
T3 construct: made in house; host or cells: E. coli
Method: as §1

[4] = target: T4, bMsrA (Bos taurus, UniProt P54149); test: as above; format: biochemical, bovine
T4 construct: made in house; host or cells: E. coli
T4 sequence (P54149 21-233): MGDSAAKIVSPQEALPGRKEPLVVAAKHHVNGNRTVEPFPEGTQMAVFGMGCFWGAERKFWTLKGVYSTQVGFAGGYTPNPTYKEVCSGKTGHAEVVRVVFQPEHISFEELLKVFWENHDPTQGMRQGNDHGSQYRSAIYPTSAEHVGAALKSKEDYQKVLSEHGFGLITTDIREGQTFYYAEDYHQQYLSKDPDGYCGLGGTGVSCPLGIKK
Method: as §1

[5] = target: T5, hMsrB2 (Homo sapiens, UniProt Q9Y3D2); test: as above; format: biochemical; conditions: for nmoles DABS-met: hMsrB2 2.7 μg
T5 construct: made in house; host or cells: E. coli
T5 sequence (Q9Y3D2 21-182): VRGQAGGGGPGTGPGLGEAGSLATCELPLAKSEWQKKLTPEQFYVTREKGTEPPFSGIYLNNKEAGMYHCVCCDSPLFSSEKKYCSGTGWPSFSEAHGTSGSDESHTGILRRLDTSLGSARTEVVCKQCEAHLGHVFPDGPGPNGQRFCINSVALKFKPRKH
Method: as §1

[6] = system: Zn-MT; conditions: appearance of free SH groups
Method: Briefly, purified Zn-MT was dialyzed against 10 mM HCl (pH 2.0) containing 150 mM NaCl for 12 hours at 4° C. The protein after dialysis is reduced, metal-free T and appears stable when left at pH 2.0. To study the activity of T in the Msr system, T was neutralized and added to the reaction mixtures immediately before the incubations were initiated. To oxidize T, 0.75 volumes of 50 mM Tris base were added to the T sample to bring the pH to 8.5. Under these conditions, approximately 50% of the sulfhydryls will become oxidized after 4 hours at room temperature or 2 hours at 37° C. With longer incubations, the T(o) started to precipitate.

[7] = system: Msr enzymes; test: Msr activity assay, statements on the Msr enzymes as a group; format: biochemical; conditions: no Trx system or T
Method: as §1

[8] = target: T6, MsrA (Rattus norvegicus, UniProt Q923M1); test: MsrA activity in cardiomyocytes, reduction of sulindac to sulindac sulfide; format: cell-based; conditions: for amount of product (sulindac sulfide): primary neonatal rat cardiomyocytes, 400 μM sulindac
T6 construct: endogenous in cells; host or cells: primary neonatal rat cardiomyocytes
T6 sequence (Q923M1 21-233): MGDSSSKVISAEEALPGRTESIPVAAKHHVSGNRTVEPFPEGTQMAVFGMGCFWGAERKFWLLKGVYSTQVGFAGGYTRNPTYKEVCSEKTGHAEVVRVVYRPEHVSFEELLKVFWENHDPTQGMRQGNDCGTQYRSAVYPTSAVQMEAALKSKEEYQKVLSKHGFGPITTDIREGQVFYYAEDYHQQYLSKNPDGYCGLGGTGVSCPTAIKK
Method: FIG. 10 is a graph showing selenocystamine (SeCm) can enhance MsrA activity in cardiomyocytes. Cardiomyocytes were incubated with 400 μM sulindac and indicated concentration of selenocystamine. Briefly, primary neonatal rat cardiomyocytes (approximately 10^6 cells per treatment) were incubated with sulindac and two different concentrations of selenocystamine. Sulindac is a substrate for MsrA, and the amount of the reduced product, sulindac sulfide, indicates the amount of MsrA activity. The amount of product is 2.7, 3.7 and 5.6 picomoles for 0, 5 μM and 50 μM selenocystamine, respectively. This amounts to a 37% and 107% stimulation.

[9] = target: T7, eMsrB (Escherichia coli, UniProt P0A746); test: Colorimetric assay for Msr activity based on the reduction of DABS-met(o); format: biochemical, E. coli; remark: listed apart in the source
T7 construct: made in house; host or cells: E. coli
T7 sequence (P0A746 whole entry, looked up): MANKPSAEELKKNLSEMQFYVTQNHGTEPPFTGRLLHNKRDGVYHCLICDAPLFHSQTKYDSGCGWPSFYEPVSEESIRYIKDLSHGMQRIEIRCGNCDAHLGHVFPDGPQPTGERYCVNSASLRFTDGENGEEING
Method: as §1

[10] = target: T8, T(o) (Bos taurus, UniProt P68301); test: Reduction of T(o) by Trx, oxidation of NADPH followed at 340 nm; format: biochemical, bovine; conditions: FIG. 4; 100 μM NADPH, 26 μg Trx, 6 μg TrxB, 28 μg partially-oxidized T
T8 construct: Fresh bovine liver was homogenized in 3 volumes of 50 mM Tris, pH 7.4; from tissue; host or cells: bovine liver
T8 sequence (P68301 whole entry): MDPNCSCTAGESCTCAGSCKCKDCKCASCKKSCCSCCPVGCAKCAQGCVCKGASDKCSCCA
Method: To study the reduction of T(o) by Trx, the reaction mixtures contained, in a total volume of 1 ml, 100 μM NADPH, 26 μg Trx, 6 μg TrxB and 28 μg of partially-oxidized T (see above). The oxidation of NADPH was followed at 340 nm at room temperature.

[11] = Table 1, DABS-met-S-(o), 15 mM DTT or Trx regenerating system, 60 minutes at 37° C.
[12] = Table 2, 20 nmoles Zn-MT with 5 mM EDTA, or 15 mM DTT
[13] = Table 1, eMsrB 2.7 μg, DABS-met-R-(o), 15 mM DTT or Trx regenerating system, 60 minutes at 37° C.
[14] = Table 1, bMsrA 2 μg, DABS-met-S-(o), 15 mM DTT or Trx regenerating system, 60 minutes at 37° C.
[15] = Table 1, DABS-met-R-(o), 15 mM DTT or Trx regenerating system, 60 minutes at 37° C.
[16] = Table 1, hMsrB3 2.3 μg, DABS-met-R-(o), 15 mM DTT or Trx regenerating system, 60 minutes at 37° C.
[17] = mammalian Trx and mammalian Trx reductase

`c1cnc2c(c1)ccc1cccnc12` [1,10-phenanthroline] was tested, and the “activity relative to EDTA, chelating agent in place of EDTA with Zn-MT” value ([1]; 5 mM) was “about 40%”.

With `O[C@@H](CS)[C@@H](O)CS` [DTT, reference compound] the “nmoles DABS-met” value [2, 11] was 46.2 nmol, the “nmoles DABS-met” value [2, 12] was 45.7 nmol and the “nmoles DABS-met” value [3, 13] was 11.1 nmol. The “nmoles DABS-met” value ([3]; Table 2, eMsrB 5.4 μg, 20 nmoles Zn-MT with 5 mM EDTA, or 15 mM DTT) was 27.8 nmol, the “nmoles DABS-met” value [4, 14] was 30.0 nmol and the “nmoles DABS-met” value ([4]; Table 2, bMsrA 2.0 μg, 20 nmoles Zn-MT with 5 mM EDTA, or 15 mM DTT) was 38.9 nmol. The “nmoles DABS-met” value [5, 15] was 31.3 nmol, the “nmoles DABS-met” value [5, 12] was 27.1 nmol and the “nmoles DABS-met” value [1, 16] was 53.8 nmol. The “nmoles DABS-met” value ([1]; Table 2, hMsrB3 2.3 μg, 20 nmoles Zn-MT with 5 mM EDTA, or 15 mM DTT) was 53.7 nmol and the “nmoles DABS-met formed” value ([1]; experiment of Table 3, hMsrB3 2.3 μg, 15 mM DTT) was 52.7 nmol.

For `O=C(O)CN(CCN(CC(=O)O)CC(=O)O)CC(=O)O` [EDTA, ethylenediaminetetraacetic acid], the “effect of EDTA by itself on hMsrB3 activity” value ([1]; EDTA alone) was “no significant effect”, the “levels of EDTA giving optimal activity” value ([1]; heated liver S-100 as reducing source) was “above 2.5 mM” and the “time for removal of zinc from Zn-MT” value [6] was “less than 10 minutes”. The “zinc removed from Zn-MT” value [6] was > 90%.

With `O=C(O)CN(CCOCCOCCN(CC(=O)O)CC(=O)O)CC(=O)O` [EGTA] the “activity of chelating agent in place of EDTA with Zn-MT” value (from here on “activity of chelating agent”) [1] was “inactive”.

With `NCC[Se][Se]CCN` [SeC, selenocystamine] the “stimulation by SeC above the Trx system alone” value ([2]; E. coli enzymes) was “less than a twofold stimulation”, the “stimulation by SeC” value ([2]; complete Trx system, eMsrA) was 10-20% and the “stimulation by SeC above the Trx system alone” value ([3]; E. coli enzymes) was “less than a twofold stimulation”. For the same molecule, the “stimulation by SeC” value ([3]; complete Trx system, eMsrB) was 10-20%, the “increase of activity in the presence of SeC” value ([4]; complete Trx system, bMsrA) was “more than 3 fold” and the “final concentration of SeC at maximal stimulation” value ([1]; FIG. 7, NADPH and Trx reductase or T as primary reducing agent) was 50 µM. The “activity of SeC by itself” value [7] was “no activity”, the “stimulation of MsrA activity” value ([8]; 5 μM selenocystamine versus 0) was 37% and the “stimulation of MsrA activity” value ([8]; 50 μM selenocystamine versus 0) was 107%. For the same molecule, the “amount of product (sulindac sulfide)” value ([8]; 5 μM selenocystamine) was 3.7 picomoles and the “amount of product (sulindac sulfide)” value ([8]; 50 μM selenocystamine) was 5.6 picomoles.

For `CC(=O)N(O)CCCCCNC(=O)CCC(=O)N(O)CCCCCNC(=O)CCC(=O)N(O)CCCCCN` [deferoxamine], the “activity of chelating agent” value [1] was “inactive”.

In the case of `O=C(O)c1ccccc1NN=C(N=Nc1cc(S(=O)(=O)O)ccc1O)c1ccccc1` [zincon], the “activity of chelating agent” value [1] is reported as “inactive”.

With “Trx: thioredoxin overexpressed and purified from E. coli; used as Trx regenerating system with Trx reductase and NADPH” the “Ratio Trx/DTT” value ([2]; Table 1, eMsrA) was 1.0, the “nmoles DABS-met” value [2, 11] was 46.8 nmol and the “Ratio Trx/DTT” value ([9]; Table 1, eMsrB) was 5.4. For the same molecule, the “nmoles DABS-met” value [9, 13] was 60.3 nmol, the “Ratio Trx/DTT” value ([4]; Table 1, bMsrA) was 0.53 and the “nmoles DABS-met” value [4, 14] was 15.8 nmol. The “Ratio Trx/DTT” value ([5]; Table 1, hMsrB2) was 0.03, the “nmoles DABS-met” value [5, 15] was 0.8 nmol and the “activity with Trx relative to the activity seen with DTT” value ([5]; hMsrB2) was “less than 10%”. The “Ratio Trx/DTT” value ([1]; Table 1, hMsrB3) was 0.03, the “nmoles DABS-met” value [1, 16] was 1.7 nmol and the “nmoles DABS-met” value ([1]; Table 3 line 2, hMsrB3 2.3 μg, no T(o), Trx + NADPH + Trx reductase) was 2.4 nmol. For the same molecule, the “activity with Trx relative to the activity seen with DTT” value ([1]; hMsrB3) was “less than 10%” and the “oxidation of NADPH” value [10] was “dependent on Trx, Trx reductase and T(o)”.

B1: mammalian Trx: reduced mammalian Trx with mammalian Trx reductase; human Trx from Sigma, rat Trx reductase (TR3) (protein, UniProt P10599 2-105, looked up)
Thioredoxin: VKQIESKTAFQEALDAAGDKLVVVDFSATWCGPCKMIKPFFHSLSEKYSNVIFLEVDVDDCQDVASECEVKCMPTFQFFKKGQKVGEFSGANKEKLEATINELV
modifications: with rat Trx reductase
B1 was tested, and the “use of Trx from either source” value [2, 17] was “efficiently used”, the “use of Trx from either source” value [9, 17] was “efficiently used” and the “activity with reduced mammalian Trx” value [1, 17] was “very poor activity”.
